Reference: ChEMBL document CHEMBL1201862, “PubChem BioAssay data set” (2004)
Calls of active or inactive are those of the source.

How the values were obtained:
[1] = target: CAAX prenyl protease 2 (Homo sapiens, UniProt Q9Y256); experiment: inhibition of Ras-converting CAAX protease Rce1 – biochemical, yeast membranes, quenched-peptide fluorescence, cherry-pick, dose response (AID 588849)
[2] = target: CAAX prenyl protease 1 (Saccharomyces cerevisiae S288c, UniProt P47154); experiment: yeast CAAX protease Ste24 inhibition – biochemical, S. cerevisiae, plate reader, cherry-pick, dose response (AID 488815)
CAAX prenyl protease 1, sequence (P47154 whole entry): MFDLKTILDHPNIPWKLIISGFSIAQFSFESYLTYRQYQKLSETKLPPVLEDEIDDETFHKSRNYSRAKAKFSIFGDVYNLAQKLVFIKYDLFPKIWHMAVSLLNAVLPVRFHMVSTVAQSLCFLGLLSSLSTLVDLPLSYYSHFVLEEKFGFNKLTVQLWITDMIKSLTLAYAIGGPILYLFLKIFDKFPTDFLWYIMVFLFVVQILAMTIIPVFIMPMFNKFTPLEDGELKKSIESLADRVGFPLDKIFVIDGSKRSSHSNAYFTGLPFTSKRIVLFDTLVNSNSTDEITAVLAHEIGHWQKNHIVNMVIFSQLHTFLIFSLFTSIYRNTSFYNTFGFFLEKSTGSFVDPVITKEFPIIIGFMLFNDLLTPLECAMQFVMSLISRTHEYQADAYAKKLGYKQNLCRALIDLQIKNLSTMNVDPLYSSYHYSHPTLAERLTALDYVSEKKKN

[3] = target: Mu-type opioid receptor (Homo sapiens, UniProt P35372); experiment: (§1) Counterscreen for agonists of heterodimerization of the mu 1 (OPRM1) and delta 1 (OPRD1) opioid receptors: Luminescence-based cell-based high throughput dose response assay to identify agonists of OPRM1 homodimerization.; assay type: functional
Mu-type opioid receptor, sequence (P35372 whole entry): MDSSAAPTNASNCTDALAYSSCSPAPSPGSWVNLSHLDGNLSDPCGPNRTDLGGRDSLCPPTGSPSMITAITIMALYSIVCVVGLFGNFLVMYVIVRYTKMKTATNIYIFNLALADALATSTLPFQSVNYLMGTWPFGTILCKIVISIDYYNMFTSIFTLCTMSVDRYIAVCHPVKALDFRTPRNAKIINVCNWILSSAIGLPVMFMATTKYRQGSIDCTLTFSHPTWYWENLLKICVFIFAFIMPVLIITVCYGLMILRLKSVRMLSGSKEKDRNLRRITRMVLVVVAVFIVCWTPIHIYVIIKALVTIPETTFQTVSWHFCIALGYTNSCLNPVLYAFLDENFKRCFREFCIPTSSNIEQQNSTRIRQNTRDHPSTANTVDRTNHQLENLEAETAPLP

[4] = target: T1, Short transient receptor potential channel 4 (Mus musculus, UniProt Q9QUQ5); experiment: calcium entry via TRPC4 opening agents – cell-based, HEK293 TRPC4/mu-opioid, Fluo-4 calcium, dose response (AID 434937); assay type: functional
T1 sequence (Q9QUQ5 whole entry): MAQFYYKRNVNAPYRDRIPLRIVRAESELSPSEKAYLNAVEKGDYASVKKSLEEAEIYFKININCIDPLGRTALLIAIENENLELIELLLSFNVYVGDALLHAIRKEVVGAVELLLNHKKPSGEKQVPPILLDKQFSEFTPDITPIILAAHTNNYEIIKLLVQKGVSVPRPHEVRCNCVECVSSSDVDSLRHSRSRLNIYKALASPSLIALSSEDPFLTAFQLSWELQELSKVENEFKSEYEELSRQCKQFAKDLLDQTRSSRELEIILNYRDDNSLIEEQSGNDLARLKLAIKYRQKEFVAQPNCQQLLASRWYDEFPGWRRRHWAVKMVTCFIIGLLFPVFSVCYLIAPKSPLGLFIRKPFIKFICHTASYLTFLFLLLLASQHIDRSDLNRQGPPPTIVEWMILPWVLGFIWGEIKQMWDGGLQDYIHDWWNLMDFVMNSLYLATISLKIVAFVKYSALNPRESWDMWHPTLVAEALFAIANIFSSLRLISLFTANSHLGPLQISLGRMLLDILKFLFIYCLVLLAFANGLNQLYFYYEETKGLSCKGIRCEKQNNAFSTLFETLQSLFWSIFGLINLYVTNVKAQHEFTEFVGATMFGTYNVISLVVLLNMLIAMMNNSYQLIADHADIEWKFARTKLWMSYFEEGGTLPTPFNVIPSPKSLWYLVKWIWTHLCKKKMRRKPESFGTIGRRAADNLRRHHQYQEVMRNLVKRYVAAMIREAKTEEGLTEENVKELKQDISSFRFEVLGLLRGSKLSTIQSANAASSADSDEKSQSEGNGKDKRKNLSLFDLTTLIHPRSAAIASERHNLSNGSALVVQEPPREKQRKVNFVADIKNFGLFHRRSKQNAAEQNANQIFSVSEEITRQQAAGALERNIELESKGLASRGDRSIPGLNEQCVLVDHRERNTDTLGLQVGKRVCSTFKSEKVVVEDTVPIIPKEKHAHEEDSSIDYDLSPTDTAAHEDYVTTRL

[5] = target: 5-hydroxytryptamine receptor 5A (Homo sapiens, UniProt P47898); experiment: Counterscreen for agonists of OPRM1-OPRD1 heterodimerization: luminescence-based cell-based high throughput dose response assay to identify agonists of 5-hydroxytryptamine (serotonin) 5A receptor (HTR5A). [Related pubchem assays (depositor defined):AID504326, AID504355, AID504692, AID504904, AID504905]; assay type: functional
5-hydroxytryptamine receptor 5A, sequence (P47898 whole entry): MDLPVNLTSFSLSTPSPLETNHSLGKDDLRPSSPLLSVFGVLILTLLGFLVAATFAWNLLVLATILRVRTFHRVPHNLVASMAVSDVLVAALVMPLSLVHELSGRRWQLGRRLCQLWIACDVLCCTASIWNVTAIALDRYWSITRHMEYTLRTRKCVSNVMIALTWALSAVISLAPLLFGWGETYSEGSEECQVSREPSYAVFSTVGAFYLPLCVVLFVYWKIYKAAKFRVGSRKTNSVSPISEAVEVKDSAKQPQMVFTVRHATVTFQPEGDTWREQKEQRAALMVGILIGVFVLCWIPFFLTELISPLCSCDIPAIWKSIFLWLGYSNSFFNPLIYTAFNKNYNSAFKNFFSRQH

[6] = target: Delta-type opioid receptor (Homo sapiens, UniProt P41143); experiment: as §1, with “of OPRD1” for “of OPRM1”, “homodimerization. [Related pubchem assays (depositor defined):AID504326, AID504355, AID504692, AID504904, AID504905]” for “homodimerization.”; assay type: functional
Delta-type opioid receptor, sequence (P41143 whole entry): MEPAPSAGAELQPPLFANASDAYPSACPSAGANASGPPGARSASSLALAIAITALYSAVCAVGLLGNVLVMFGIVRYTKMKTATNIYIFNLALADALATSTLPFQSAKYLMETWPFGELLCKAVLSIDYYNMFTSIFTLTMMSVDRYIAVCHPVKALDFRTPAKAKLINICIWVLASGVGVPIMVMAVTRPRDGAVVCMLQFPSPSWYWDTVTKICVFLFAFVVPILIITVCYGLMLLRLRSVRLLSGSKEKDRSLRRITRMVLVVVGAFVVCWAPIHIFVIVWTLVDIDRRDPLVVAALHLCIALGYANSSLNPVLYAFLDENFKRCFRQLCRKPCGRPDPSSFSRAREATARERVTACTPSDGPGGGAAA

[7] = target: Phospholipase A2 (Homo sapiens, UniProt P04054); assay type: functional;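 note: confirmatory dose-response counterscreen on phospholipase A2, testing hits that came from an ultra-high-throughput screen for ATG4B inhibitors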
Phospholipase A2, sequence (P04054 whole entry): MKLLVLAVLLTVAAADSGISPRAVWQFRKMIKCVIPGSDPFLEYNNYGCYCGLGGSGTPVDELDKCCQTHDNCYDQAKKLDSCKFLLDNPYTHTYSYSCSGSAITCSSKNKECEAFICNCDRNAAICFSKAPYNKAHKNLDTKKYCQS

[8] = tested on: BJ; experiment: BJ-TERT-LT-ST fibroblast viability loss – cell-based, RAS-independent, luminescence, dose response (AID 1935); assay type: functional; conditions: Homo sapiens;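 note: BJ fibroblasts immortalized with TERT plus LT and ST oncogenes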
[9] = target: T2, Cysteine protease ATG4B (Homo sapiens, UniProt Q9Y4P1); assay type: functional;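 note: Fluorescence-based dose-response confirmation assay measuring inhibition of ATG4B activity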
T2 sequence (Q9Y4P1 whole entry): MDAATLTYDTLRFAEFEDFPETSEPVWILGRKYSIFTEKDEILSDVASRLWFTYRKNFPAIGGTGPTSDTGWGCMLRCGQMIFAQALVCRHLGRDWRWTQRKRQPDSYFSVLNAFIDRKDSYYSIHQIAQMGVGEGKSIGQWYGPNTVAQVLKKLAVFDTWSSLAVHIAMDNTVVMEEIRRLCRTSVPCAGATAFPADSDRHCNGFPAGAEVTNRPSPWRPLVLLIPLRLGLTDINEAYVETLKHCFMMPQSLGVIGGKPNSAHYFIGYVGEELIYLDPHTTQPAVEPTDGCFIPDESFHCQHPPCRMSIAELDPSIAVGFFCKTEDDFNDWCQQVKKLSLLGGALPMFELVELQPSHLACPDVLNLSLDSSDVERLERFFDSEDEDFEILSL

[10] = Luminescence Cell-Based Dose Response HTS to Identify Inhibitors of 5'UTR Stem-Loop Driven Prion Protein mRNA Translation in H4 Neuroglioblastoma Cells. [Related pubchem assays: 1827 (Project Summary), 1813 (Primary HTS)]; assay type: functional
[11] = target: G-protein coupled receptor 35 (Homo sapiens, UniProt Q9HC97); experiment: inhibition of zaprinast-stimulated GPR35 beta-arrestin translocation – imaging, U2OS, beta-arrestin-GFP, zaprinast agonist, primary screen (AID 2058); assay type: functional;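 note: antagonist potency meaning inhibition of agonist-induced arrestin redistribution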
G-protein coupled receptor 35, sequence (Q9HC97 whole entry): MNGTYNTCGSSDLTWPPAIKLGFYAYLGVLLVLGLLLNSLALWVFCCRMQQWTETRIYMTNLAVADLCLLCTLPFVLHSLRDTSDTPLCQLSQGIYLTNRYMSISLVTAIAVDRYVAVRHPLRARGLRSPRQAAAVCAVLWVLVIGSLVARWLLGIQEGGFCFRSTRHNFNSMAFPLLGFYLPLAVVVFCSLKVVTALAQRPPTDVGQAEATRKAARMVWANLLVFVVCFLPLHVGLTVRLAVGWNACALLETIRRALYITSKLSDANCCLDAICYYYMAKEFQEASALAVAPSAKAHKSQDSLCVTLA

[12] = target: ATP-dependent molecular chaperone HSP82 (Candida albicans (strain WO-1) (Yeast), UniProt C4YTQ8); experiment: steroid-induced GRE reporter decrease in yeast – S. cerevisiae, luminescence, Hsp90 inhibitor project, dose response (AID 2400); assay type: functional, cell-based;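 note: beta-galactosidase luminescence from glucocorticoid response element reporter as proxy for Hsp90 function; inhibitor potency where signal loss means Hsp90 inhibition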
ATP-dependent molecular chaperone HSP82, sequence (C4YTQ8 whole entry): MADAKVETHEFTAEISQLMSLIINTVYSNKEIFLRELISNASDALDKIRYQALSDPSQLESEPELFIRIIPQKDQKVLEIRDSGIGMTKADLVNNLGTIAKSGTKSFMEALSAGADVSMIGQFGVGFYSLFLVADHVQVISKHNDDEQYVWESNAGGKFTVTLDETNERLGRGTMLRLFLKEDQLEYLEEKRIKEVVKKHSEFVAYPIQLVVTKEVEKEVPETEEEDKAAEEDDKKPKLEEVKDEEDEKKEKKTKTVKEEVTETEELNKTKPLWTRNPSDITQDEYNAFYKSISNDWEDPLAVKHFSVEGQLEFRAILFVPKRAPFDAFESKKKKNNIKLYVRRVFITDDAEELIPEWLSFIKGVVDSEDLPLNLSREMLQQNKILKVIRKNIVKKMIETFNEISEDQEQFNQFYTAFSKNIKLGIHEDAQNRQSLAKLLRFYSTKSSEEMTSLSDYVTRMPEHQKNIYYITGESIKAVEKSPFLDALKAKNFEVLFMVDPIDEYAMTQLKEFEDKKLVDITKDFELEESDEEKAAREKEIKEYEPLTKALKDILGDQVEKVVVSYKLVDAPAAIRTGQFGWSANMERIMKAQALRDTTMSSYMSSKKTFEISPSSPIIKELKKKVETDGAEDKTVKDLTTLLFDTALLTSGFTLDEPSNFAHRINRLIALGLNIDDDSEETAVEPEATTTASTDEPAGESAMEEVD

[13] = target: T3, Apoptotic protease-activating factor 1 (Homo sapiens, UniProt O14727); assay type: functional
T3 sequence (O14727 whole entry): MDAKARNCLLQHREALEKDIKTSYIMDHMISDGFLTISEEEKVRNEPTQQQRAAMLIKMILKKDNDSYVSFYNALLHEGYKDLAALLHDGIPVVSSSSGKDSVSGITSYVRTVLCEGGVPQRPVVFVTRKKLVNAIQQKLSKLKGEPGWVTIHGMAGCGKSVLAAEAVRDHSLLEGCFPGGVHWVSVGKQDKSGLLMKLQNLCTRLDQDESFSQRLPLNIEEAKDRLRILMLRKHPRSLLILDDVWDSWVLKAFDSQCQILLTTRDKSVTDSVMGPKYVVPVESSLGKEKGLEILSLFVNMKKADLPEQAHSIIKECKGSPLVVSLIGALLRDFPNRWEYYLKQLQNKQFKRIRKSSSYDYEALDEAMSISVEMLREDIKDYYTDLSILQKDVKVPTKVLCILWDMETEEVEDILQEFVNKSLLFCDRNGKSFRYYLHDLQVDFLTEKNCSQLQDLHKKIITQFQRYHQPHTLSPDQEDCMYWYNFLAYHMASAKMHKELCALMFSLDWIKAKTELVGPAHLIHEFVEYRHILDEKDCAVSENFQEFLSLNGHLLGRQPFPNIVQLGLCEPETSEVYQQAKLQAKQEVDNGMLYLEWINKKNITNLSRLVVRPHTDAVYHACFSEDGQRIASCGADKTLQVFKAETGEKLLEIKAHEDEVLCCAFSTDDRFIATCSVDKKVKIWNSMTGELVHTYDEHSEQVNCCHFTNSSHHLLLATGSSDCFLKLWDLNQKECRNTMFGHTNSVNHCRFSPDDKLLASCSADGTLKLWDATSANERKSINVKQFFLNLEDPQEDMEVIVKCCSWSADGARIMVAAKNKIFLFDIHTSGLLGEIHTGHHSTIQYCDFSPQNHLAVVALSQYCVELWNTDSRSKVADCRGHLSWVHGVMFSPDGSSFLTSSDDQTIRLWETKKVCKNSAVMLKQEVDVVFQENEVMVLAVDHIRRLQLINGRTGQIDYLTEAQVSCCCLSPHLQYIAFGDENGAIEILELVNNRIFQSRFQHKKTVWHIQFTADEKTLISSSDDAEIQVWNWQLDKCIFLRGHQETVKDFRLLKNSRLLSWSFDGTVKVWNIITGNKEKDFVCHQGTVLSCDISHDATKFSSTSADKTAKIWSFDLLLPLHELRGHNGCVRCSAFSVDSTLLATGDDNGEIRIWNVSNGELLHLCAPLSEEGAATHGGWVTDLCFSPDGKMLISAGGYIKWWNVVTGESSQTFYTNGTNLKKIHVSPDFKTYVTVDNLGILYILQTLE

[14] = DRD fibroblast viability loss – cell-based, non-viral oncogenic, luminescence, dose response (AID 1934); assay type: functional; conditions: Homo sapiens
[15] = tested on: Streptococcus sp. 'group A'; experiment: Streptococcus pyogenes SK(-)GAS viability under kanamycin – luminescence, BacTiterGlo, confirmation, counter-screen for streptokinase expression inhibitor project, dose response (AID 1900); assay type: functional, organism-based
[16] = fluconazole-exposed Candida albicans growth modulators – fluorescence, retest, confirmation (AID 2467); assay type: functional, cell-based
[17] = NIH-3T3 fibroblast cytotoxicity, dose response, cytotoxicity control, cell-based, fluorescence, Alamar Blue, secondary assay (AID 2327); assay type: functional;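 note: NIH-3T3 mouse fibroblasts cultured with fluconazole at 8 µg/mL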
[18] = HEK-293T viability loss after treatment – luminescence, T-cell screen hits, cytotoxicity control for TCR NF-kB inhibitor project, dose response (AID 489026); assay type: functional, cell-based;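 note: cells exposed to compound about 14 hours before the viability readout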
[19] = tested on: BJ; experiment: growth inhibition of engineered Ras-driven BJ cells – cell-based, alamar blue fluorescence, cherrypicked samples, dose response (AID 2631); assay type: functional; conditions: Homo sapiens;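 note: confirmatory dose-response assay in RAS-dependent BJ fibroblasts engineered with TERT, LT and ST, with cytotoxicity read by fluorescence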
[20] = target: Beta-arrestin-1 (Homo sapiens, UniProt P49407); experiment: beta-arrestin/AP2 interaction blockers, potency – biochemical, cherry pick 1, beta2-adaptin appendage, flow cytometry, dose response (AID 588783); assay type: functional
Beta-arrestin-1, sequence (P49407 whole entry): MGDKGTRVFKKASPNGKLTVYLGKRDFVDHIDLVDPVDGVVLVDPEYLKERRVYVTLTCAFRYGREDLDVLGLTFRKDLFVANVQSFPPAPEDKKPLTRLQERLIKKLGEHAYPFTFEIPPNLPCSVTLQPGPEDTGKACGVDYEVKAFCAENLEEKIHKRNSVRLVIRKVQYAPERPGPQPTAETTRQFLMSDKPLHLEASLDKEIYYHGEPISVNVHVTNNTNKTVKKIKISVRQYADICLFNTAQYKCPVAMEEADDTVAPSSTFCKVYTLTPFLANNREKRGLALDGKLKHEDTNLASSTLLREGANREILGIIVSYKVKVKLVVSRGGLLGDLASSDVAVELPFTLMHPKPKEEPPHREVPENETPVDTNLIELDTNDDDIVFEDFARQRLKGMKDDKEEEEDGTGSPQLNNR

[21] = tested on: BJ; experiment: cells; assay type: functional, cell-based; conditions: Homo sapiens
[22] = target: T4, Serine/threonine-protein phosphatase (Candida dubliniensis (strain CD36 / CBS 7987 / NCPF 3949 / NRRLY-17841) (Yeast), UniProt B9W6M3); experiment: blockers of CaCl2-induced CDRE-lacZ signaling – S. cerevisiae, luminescence, secondary, dose response (AID 2388); assay type: functional, cell-based;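 note: yeast reporter cells carrying a calcineurin-responsive lacZ construct stimulated with calcium chloride; luminescent beta-galactosidase reporter signal in whole cells rather than isolated phosphatase activity; potency for inhibition where a drop in reporter signal means calcineurin blockade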
T4 sequence (B9W6M3 whole entry): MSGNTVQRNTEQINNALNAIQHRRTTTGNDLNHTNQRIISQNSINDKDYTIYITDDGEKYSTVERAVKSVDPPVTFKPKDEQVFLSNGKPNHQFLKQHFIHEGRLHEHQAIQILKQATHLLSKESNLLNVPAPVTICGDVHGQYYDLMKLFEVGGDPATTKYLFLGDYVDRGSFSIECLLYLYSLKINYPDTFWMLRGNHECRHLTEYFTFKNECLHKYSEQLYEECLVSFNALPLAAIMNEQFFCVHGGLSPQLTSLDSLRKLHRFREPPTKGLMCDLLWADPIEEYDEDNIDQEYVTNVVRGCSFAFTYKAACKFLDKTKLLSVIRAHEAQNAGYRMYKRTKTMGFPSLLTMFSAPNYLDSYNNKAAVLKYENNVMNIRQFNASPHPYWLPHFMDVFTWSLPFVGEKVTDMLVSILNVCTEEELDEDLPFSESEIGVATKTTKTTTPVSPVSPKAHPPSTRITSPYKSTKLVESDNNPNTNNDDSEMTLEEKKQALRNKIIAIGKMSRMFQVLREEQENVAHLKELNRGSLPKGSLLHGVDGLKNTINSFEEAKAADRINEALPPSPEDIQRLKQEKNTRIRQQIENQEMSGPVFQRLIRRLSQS

[23] = target: Nonstructural protein 1 (Influenza A virus, UniProt Q194T2); assay type: functional, Influenza A virus (A/California/07/2009(H1N1))
Nonstructural protein 1, sequence (Q194T2 whole entry): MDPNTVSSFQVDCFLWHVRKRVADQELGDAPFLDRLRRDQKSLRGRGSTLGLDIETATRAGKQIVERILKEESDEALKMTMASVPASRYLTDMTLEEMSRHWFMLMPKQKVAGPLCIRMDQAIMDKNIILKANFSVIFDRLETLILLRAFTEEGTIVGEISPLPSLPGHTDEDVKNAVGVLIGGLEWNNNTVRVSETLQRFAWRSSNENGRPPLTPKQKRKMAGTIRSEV

[24] = tested on: Streptococcus; experiment: GAS UMAA2166 growth inhibition – luminescence, BacTiterGlo, counter-screen for streptokinase expression inhibitor project, dose response (AID 1915); assay type: functional, organism-based;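 note: potency for reduction of bacterial viability or growth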
[25] = target: Cyclin-dependent kinase 5/CDK5 activator 1 (Homo sapiens, UniProt Q00535); experiment: blockade of human CDK5 activity – biochemical, cherry-picked samples, set 2, dose response (AID 504545)
Cyclin-dependent kinase 5/CDK5 activator 1, sequence (Q00535 whole entry): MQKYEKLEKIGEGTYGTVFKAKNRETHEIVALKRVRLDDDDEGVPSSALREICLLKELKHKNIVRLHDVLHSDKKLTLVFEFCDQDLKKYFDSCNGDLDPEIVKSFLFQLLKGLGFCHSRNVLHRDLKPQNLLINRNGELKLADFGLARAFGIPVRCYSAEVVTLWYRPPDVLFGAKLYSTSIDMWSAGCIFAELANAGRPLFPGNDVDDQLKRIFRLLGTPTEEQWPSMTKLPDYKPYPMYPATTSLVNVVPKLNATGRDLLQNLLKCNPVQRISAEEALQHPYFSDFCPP
Cyclin-dependent kinase 5/CDK5 activator 1, sequence (Q15078 whole entry, further chain): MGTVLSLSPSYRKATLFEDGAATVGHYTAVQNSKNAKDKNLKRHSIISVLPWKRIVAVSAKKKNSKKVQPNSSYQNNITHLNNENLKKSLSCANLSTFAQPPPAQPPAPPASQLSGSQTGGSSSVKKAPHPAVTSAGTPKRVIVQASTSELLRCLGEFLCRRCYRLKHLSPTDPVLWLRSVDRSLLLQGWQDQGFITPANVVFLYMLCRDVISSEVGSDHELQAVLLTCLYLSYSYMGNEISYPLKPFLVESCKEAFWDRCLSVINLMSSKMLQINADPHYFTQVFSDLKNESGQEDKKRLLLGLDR

[26] = tested on: BJ; experiment: BJ-TERT fibroblast viability loss – cell-based, RAS-independent, luminescence, dose response (AID 1933); assay type: functional; conditions: Homo sapiens
[27] = luciferase reporter signal suppression in cells – H4 neuroglioma cells, luminescence, dose response (AID 1990); assay type: functional, cell-based

CAAX prenyl protease 2, sequence (Q9Y256 whole entry): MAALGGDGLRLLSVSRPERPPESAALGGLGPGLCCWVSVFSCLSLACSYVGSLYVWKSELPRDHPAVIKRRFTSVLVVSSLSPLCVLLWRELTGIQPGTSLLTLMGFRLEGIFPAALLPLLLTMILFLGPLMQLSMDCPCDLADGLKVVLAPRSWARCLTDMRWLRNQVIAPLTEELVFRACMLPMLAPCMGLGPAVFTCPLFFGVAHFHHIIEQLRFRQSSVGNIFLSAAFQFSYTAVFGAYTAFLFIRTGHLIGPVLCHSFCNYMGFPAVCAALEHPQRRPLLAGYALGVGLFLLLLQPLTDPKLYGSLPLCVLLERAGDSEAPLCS

Structure (SMILES): CC1CCCC(/C=N/c2ccccc2C(=O)O)=C1O (configuration not stated)
- AC50 [1]: 11.6 µM (active)
- AC50 [2]: 4.3 µM (active)

Structure (SMILES): Cc1ccccc1N(CC(=O)N/N=C/c1ccc(F)cc1)C(=O)c1ccccc1
- EC50 [3]: > 92.5 µM (inactive)
- EC50 [4]: 2.11 µM (active)
- EC50 [5]: > 92.5 µM (inactive)
- EC50 [6]: > 92.5 µM (inactive)

Structure (SMILES): CCN1/C(=C/C(C)=C/c2sc3ccccc3[n+]2CC)Sc2ccccc21
- IC50 [7]: 7.86 µM (active)
- EC50 [8]: 5.48 µM (inconclusive)
- IC50 [9]: 8.62 µM (active)
- EC50 [10]: 1.68 µM (active)
- IC50 [11]: 1.01 µM (active)
- EC50 [12]: 18.3 µM (active)
- IC50 [13]: 19.4 µM (active)
- EC50 [14]: 6.17 µM (active)
- EC50 [15]: 2.15 µM (active)
- EC50 [16]: 0.051 µM (active)
- EC50 [17]: 77.7 µM (active)
- IC50 [18]: 64.4 µM (inactive)
- EC50 [19]: 1.74 µM (active)
- IC50 [20]: 2.2 µM (active)
- EC50 [21]: 6.01 µM (active)
- EC50 [22]: > 180 µM (inactive)
- IC50 [23]: 5.7 µM (active)
- EC50 [24]: 2.74 µM (active)
- AC50 [25]: 41.1 µM (active)
- EC50 [26]: 4.56 µM (active)
- EC50 [27]: < 0.1 µM (active)
